Laboratory results published in BindingDB's records for PubMed 7965790 (University of Nebraska, 1994).

Experiments:
[1] = target: T1, Alpha-2A adrenergic receptor [16-465] (Rattus norvegicus, UniProt P22909)
T1 construct: 16-465
T1 sequence (P22909 whole entry): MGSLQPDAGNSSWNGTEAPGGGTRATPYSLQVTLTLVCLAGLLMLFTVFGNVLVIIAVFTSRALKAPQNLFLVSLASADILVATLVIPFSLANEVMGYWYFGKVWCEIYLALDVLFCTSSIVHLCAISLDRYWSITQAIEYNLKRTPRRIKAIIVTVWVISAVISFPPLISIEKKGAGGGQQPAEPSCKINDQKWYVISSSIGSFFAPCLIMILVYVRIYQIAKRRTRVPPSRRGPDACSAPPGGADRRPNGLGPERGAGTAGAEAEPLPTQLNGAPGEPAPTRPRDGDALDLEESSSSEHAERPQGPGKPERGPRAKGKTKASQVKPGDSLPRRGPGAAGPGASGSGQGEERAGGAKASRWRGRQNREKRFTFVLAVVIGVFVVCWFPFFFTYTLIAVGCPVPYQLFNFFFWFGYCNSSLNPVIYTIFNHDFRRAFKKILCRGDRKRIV

[2] = target: T2, Alpha-2A adrenergic receptor (Bos taurus, UniProt Q28838)
T2 sequence (Q28838 whole entry): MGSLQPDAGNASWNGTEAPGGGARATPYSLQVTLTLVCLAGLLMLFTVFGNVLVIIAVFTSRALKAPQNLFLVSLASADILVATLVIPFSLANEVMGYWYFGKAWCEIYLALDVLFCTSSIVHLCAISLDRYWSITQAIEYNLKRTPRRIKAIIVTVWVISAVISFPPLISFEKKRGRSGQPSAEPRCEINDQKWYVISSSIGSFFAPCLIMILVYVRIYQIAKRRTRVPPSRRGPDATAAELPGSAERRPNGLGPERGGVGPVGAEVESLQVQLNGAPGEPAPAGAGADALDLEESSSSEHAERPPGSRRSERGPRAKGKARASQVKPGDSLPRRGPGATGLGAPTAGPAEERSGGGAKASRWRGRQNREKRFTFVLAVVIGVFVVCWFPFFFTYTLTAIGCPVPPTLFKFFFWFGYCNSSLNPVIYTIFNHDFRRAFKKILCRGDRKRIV

[3] = target: T3, Alpha-2A adrenergic receptor (Sus scrofa, UniProt P18871)
T3 sequence (P18871 whole entry): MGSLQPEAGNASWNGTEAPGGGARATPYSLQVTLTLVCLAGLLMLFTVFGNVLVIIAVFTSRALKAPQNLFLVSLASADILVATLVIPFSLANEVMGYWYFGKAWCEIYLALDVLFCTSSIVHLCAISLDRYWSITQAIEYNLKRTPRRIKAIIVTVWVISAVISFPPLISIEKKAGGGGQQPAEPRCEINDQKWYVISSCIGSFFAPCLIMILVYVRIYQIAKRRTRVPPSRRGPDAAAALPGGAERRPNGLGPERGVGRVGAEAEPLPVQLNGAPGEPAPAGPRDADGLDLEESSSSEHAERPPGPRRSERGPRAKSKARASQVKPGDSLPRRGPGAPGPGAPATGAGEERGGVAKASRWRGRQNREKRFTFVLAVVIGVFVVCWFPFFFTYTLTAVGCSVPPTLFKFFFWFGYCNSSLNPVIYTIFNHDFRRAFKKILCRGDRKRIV

| Structure (SMILES) | Ki [1] | Ki [2] | Ki [3] |
| --- | --- | --- | --- |
| O=C1NCN(c2ccccc2)C12CCN(CC1COc3ccccc3O1)CC2 (centres undefined) [8-(2,3-Dihydro-benzo[1,4]dioxin-2-ylmethyl)-1-phenyl-1,3,8-triaza-spiro[4.5]decan-4-one] | 70 nM | 10.5 nM | 3.36 nM |
| COC(=O)C1=CO[C@@H](C)[C@@H]2CN3CCc4c([nH]c5ccccc45)[C@H]3C[C@H]12 [AKUAMMIGINE] | 1210 nM | 1830 nM | – |
| COC(=O)C1=COC(C)C2CN3CCc4c([nH]c5ccccc45)C3CC12 (centres undefined) [Ajmalicine] | 289 nM | 653 nM | 10 nM |
| CN1C[C@H](Cn2ccnc2-c2ccccc2)C[C@@H]2c3cccc4[nH]c(Br)c(c34)C[C@H]21 [BAM-1303] | 35 nM | 149 nM | 0.52 nM |
| COc1ccccc1N1CCN(CCC2C(=O)c3ccccc3C(C)(C)C2=O)CC1 (centres undefined) [NSC_122211] | 749 nM | 352 nM | 365 nM |
| COc1cccc(OC)c1OCCNCC1Oc2ccccc2OC1c1ccccc1 (centres undefined) [NSC_185453] | 46 nM | 13.2 nM | 0.95 nM |
| NCC(O)c1ccc(O)c(O)c1 (stereo not drawn) [Noradrenaline,(+)] | – | 1090 nM | 371 nM |
| CC(C)=CCOc1ccc(Cl)c2c1CCN(C)CC2 [SK&F-104078] | 248 nM | 153 nM | 35 nM |
| Cc1ccc(N(CC2=NCCN2)c2cccc(O)c2)cc1 [SMR000059054] | – | – | 2.87 nM |
| Cc1cc(C(C)(C)C)c(O)c(C)c1CC1=NCCN1 [SMR000059324] | – | 35 nM | 3.19 nM |
| CN(C)CCCN1c2ccccc2Sc2ccc(Cl)cc21 [[3-(2-Chloro-phenothiazin-10-yl)-propyl]-dimethyl-amine(Chlorpromazine)] | – | 884 nM | 64 nM |
| COc1cc2nc(N3CCN(C(=O)c4ccco4)CC3)nc(N)c2cc1OC [[3H]-Minipress] | – | 1370 nM | 1160 nM |
